Measurements taken from patent US9758538B2, “Pyrimidine derivatives” (PFIZER INC., priority 2015, dated 2017).

Biological target: truncated PI3Kα (p110α/iSH2 p85α), PI3KA_Act (Homo sapiens (Human), UniProt P42336)
Experiment: PI3Kα biochemical kinase assay, fluorescence polarization format (PI3KA_Act)
Conditions: 0.5 nM p110α/iSH2 p85, 1 mM ATP, 30 μM PIP2, 15-min preincubation; Morrison equation fit; read-out: PI3KA_Act Ki
In short: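 Enzyme: His-tagged p110α/p85α niSH2 complex from Sf21 baculovirus expression, IMAC-purified, tag cleaved, then SEC. Reactions ran 30 min at room temperature, stopped with 10 mM EDTA pH 8 (final), and were read by fluorescence polarization.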

Chain of truncated PI3Kα (p110α/iSH2 p85α), PI3KA_Act (P42336 whole entry, the tested form may be a part): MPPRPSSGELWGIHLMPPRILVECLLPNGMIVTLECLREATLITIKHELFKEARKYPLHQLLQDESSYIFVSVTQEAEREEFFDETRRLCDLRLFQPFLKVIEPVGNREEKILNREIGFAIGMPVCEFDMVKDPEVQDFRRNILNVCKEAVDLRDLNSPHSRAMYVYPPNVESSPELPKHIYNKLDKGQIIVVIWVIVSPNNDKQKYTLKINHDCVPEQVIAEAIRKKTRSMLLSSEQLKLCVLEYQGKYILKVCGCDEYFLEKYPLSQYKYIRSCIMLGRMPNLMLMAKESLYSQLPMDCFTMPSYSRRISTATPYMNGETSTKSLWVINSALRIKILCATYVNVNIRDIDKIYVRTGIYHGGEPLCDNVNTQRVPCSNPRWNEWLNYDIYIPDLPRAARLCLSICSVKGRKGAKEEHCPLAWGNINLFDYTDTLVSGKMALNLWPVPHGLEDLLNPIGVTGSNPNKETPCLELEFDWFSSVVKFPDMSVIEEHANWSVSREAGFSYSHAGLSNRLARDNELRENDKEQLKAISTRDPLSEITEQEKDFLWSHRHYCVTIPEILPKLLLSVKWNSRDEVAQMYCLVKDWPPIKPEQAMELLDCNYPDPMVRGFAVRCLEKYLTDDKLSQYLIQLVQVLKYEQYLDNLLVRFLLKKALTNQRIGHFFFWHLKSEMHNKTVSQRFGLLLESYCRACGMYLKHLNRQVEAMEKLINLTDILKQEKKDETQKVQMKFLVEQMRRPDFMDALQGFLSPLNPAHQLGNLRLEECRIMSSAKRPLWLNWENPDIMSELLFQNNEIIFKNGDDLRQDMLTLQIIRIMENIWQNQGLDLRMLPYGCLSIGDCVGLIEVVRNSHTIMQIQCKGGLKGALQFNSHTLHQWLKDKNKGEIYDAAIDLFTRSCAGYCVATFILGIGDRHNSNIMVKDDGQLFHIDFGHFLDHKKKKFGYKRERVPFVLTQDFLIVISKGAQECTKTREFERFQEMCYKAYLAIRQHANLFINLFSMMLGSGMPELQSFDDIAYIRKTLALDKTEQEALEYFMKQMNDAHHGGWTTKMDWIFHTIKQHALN

Compound	Ki
Nc1ncc(-c2cc(N[C@@]3(CO)CCN(C(=O)C4CC4)C3)nc(N3CCOCC3)n2)cn1 [Example 92, [(3S)-3-{[2′-amino-2-(morpholin-4-yl)-4,5′-bipyrimidin-6-yl]amino}-3-(hydroxymethyl)pyrrolidin-1-yl](cyclopropyl)methanone]	< 0.018 nM
Nc1ncc(-c2cc(N[C@@]3(CO)CCN(C(=O)c4cn[nH]c4)C3)nc(N3CCOCC3)n2)cn1 [Example 90, [(3S)-3-{[2′-amino-2-(morpholin-4-yl)-4,5′-bipyrimidin-6-yl]amino}-3-(hydroxymethyl)pyrrolidin-1-yl](1H-pyrazol-4-yl)methanone]	< 0.018 nM
CC(C)(C)OC(=O)N1CCC(CF)(Nc2cc(-c3cnc(N)nc3)nc(N3CCOCC3)n2)C1 (stereo not drawn) [Example 110, tert-butyl 3-{[2′-amino-2-(morpholin-4-yl)-4,5′-bipyrimidin-6-yl]amino}-3-(fluoromethyl)pyrrolidine-1-carboxylate]	0.072 nM
Cc1ncc(-c2cc(N[C@@]3(CO)CCN(C(=O)OC(C)(C)C)C3)nc(N3CCOCC3)n2)cc1F [Example 127, tert-butyl (3S)-3-{[6-(5-fluoro-6-methylpyridin-3-yl)-2-(morpholin-4-yl)pyrimidin-4-yl]amino}-3-(hydroxymethyl)pyrrolidine-1-carboxylate]	19 nM
Nc1ncc(-c2nc(N3CCOCC3)nc(N[C@@]3(CO)CCN(C(=O)OCCF)C3)c2F)cn1 [Example 139, 2-fluoroethyl (3S)-3-{[2′-amino-5-fluoro-2-(morpholin-4-yl)-4,5′-bipyrimidin-6-yl]amino}-3-(hydroxymethyl)pyrrolidine-1-carboxylate]	< 0.018 nM
CC(C)(C)OC(=O)N1CCC(CO)(Oc2cc(-c3cnc(N)nc3)nc(N3CCOCC3)n2)C1 (single isomer, unassigned) [Example 8, tert-butyl 3-{[2′-amino-2-(morpholin-4-yl)-4,5′-bipyrimidin-6-yl]oxy}-3-(hydroxymethyl)pyrrolidine-1-carboxylate]	< 0.018 nM
Nc1ncc(-c2cc(N[C@@]3(CO)CCN(C(=O)[C@@H]4CC4(F)F)C3)nc(N3CCOCC3)n2)cn1 [Example 46, [(3S)-3-{[2′-amino-2-(morpholin-4-yl)-4,5′-bipyrimidin-6-yl]amino}-3-(hydroxymethyl)pyrrolidin-1-yl][(1S)-2,2-difluorocyclopropyl]methanone]	< 0.018 nM
CCC(=O)N1CCC[C@@](CO)(Nc2nc(N3CCOCC3)nc(-c3cnc(N)nc3)c2F)C1 [Example 147, 1-[(3R)-3-{[2′-amino-5-fluoro-2-(morpholin-4-yl)-4,5′-bipyrimidin-6-yl]amino}-3-(hydroxymethyl)piperidin-1-yl]propan-1-one]	1.9 nM
CC(C)(C)OC(=O)N1CC[C@](C)(Nc2cc(-c3cnc(N)nc3)nc(N3CCOCC3)n2)C1 [Example 40, tert-butyl (3S)-3-{[2′-amino-2-(morpholin-4-yl)-4,5′-bipyrimidin-6-yl]amino}-3-methylpyrrolidine-1-carboxylate]	0.095 nM
COC(=O)N1CCC[C@](CO)(Nc2cc(-c3cnc(N)nc3)nc(N3CCOCC3)n2)C1 [Example 5, methyl (3S)-3-{[2′-amino-2-(morpholin-4-yl)-4,5′-bipyrimidin-6-yl]amino}-3-(hydroxymethyl)piperidine-1-carboxylate]	< 0.018 nM
Nc1ncc(-c2nc(N3CCOCC3)nc(N[C@]3(CO)CCCN(C(=O)C4CC4)C3)c2F)cn1 [Example 157, [(3R)-3-{[2′-amino-5-fluoro-2-(morpholin-4-yl)-4,5′-bipyrimidin-6-yl]amino}-3-(hydroxymethyl)piperidin-1-yl](cyclopropyl)methanone]	1.87 nM
Cc1ncc(-c2cc(N[C@@]3(CO)CCN(C(=O)OCC(F)F)C3)nc(N3CCOCC3)n2)cn1 [Example 138, 2,2-difluoroethyl (3S)-3-(hydroxymethyl)-3-{[2′-methyl-2-(morpholin-4-yl)-4,5′-bipyrimidin-6-yl]amino}pyrrolidine-1-carboxylate]	0.557 nM
Nc1ncc(-c2nc(N3CCOCC3)nc(N[C@@]3(COP(=O)(O)O)CCN(C(=O)OCC(F)F)C3)c2F)cn1 [Example 3, 2,2-difluoroethyl (3S)-3-{[2′-amino-5-fluoro-2-(morpholin-4-yl)-4,5′-bipyrimidin-6-yl]amino}-3-[(phosphonooxy)methyl]pyrrolidine-1-carboxylate]	2.61 nM
Nc1ncc(-c2cc(NC3(CO)CNC3)nc(N3CCOCC3)n2)cn1 [Example 43, (3-{[2′-amino-2-(morpholin-4-yl)-4,5′-bipyrimidin-6-yl]amino}azetidin-3-yl)methanol]	1.97 nM
COC[C@]1(Nc2cc(-c3cnc(N)nc3)nc(N3CCOCC3)n2)CCNC1 [Example 122, N˜6˜-[(3S)-3-(methoxymethyl)pyrrolidin-3-yl]-2-(morpholin-4-yl)-4,5′-bipyrimidine-2′,6-diamine]	21.5 nM
Nc1ncc(-c2cc(N[C@@]3(CO)CCNC3)nc(N3CCOCC3)n2)cn1 [Example 29, [(3S)-3-{[2′-amino-2-(morpholin-4-yl)-4,5′-bipyrimidin-6-yl]amino}pyrrolidin-3-yl]methanol]	5.88 nM
Nc1ncc(-c2nc(N[C@@]3(CO)CCN(C(=O)OC4CC4)C3)nc(N3CCOCC3)n2)cn1 [Example 103, cyclopropyl (3S)-3-{[4-(2-aminopyrimidin-5-yl)-6-(morpholin-4-yl)-1,3,5-triazin-2-yl]amino}-3-(hydroxymethyl)pyrrolidine-1-carboxylate]	0.107 nM
Nc1ncc(-c2cc(NC3(CF)CCN(C(=O)OCc4ccccc4)C3)nc(N3CCOCC3)n2)cn1 (stereo not drawn) [Example 105, benzyl 3-{[2′-amino-2-(morpholin-4-yl)-4,5′-bipyrimidin-6-yl]amino}-3-(fluoromethyl)pyrrolidine-1-carboxylate]	0.489 nM
CC1(OC(=O)N2CC[C@](CO)(Nc3cc(-c4cnc(N)nc4)nc(N4CCOCC4)n3)C2)CC1 [Example 47, 1-methylcyclopropyl (3S)-3-{[2′-amino-2-(morpholin-4-yl)-4,5′-bipyrimidin-6-yl]amino}-3-(hydroxymethyl)pyrrolidine-1-carboxylate]	0.025 nM
CC(C)(C)OC(=O)N1CCC(CO)(Oc2cc(-c3cnc(N)nc3)nc(N3CCOCC3)n2)C1 (single isomer, unassigned) [Example 9, tert-butyl 3-{[2′-amino-2-(morpholin-4-yl)-4,5′-bipyrimidin-6-yl]oxy}-3-(hydroxymethyl)pyrrolidine-1-carboxylate]	0.492 nM
Nc1ncc(-c2nc(N3CCOCC3)nc(N[C@@]3(CO)CCN(C(=O)C4(F)CCC4)C3)c2F)cn1 [Example 115, [(3S)-3-{[2′-amino-5-fluoro-2-(morpholin-4-yl)-4,5′-bipyrimidin-6-yl]amino}-3-(hydroxymethyl)pyrrolidin-1-yl](1-fluorocyclobutyl)methanone]	0.036 nM
CC(=O)N1CC[C@](CO)(Nc2cc(-c3cnc(N)nc3)nc(N3CCOCC3)n2)C1 [Example 32, 1-[(3S)-3-{[2′-amino-2-(morpholin-4-yl)-4,5′-bipyrimidin-6-yl]amino}-3-(hydroxymethyl)pyrrolidin-1-yl]ethanone]	0.771 nM
Nc1ncc(-c2cc(N[C@@]3(CO)CCN(C4CCNC4=O)C3)nc(N3CCOCC3)n2)cn1 (stereo partly drawn) [Example 80, (3S)-3-{[2′-amino-2-(morpholin-4-yl)-4,5′-bipyrimidin-6-yl]amino}-3-(hydroxymethyl)-1,3′-bipyrrolidin-2′-one]	1.94 nM
Nc1ncc(-c2cc(N[C@@]3(CO)CCN(c4ccccn4)C3)nc(N3CCOCC3)n2)cn1 [Example 85, [(3S)-3-{[2′-amino-2-(morpholin-4-yl)-4,5′-bipyrimidin-6-yl]amino}-1-(pyridin-2-yl)pyrrolidin-3-yl]methanol]	0.067 nM
Nc1ncc(-c2cc(N[C@@]3(CO)CCN(C4CCCNC4=O)C3)nc(N3CCOCC3)n2)cn1 (stereo partly drawn) [Example 88, 3-[(3S)-3-{[2′-amino-2-(morpholin-4-yl)-4,5′-bipyrimidin-6-yl]amino}-3-(hydroxymethyl)pyrrolidin-1-yl]piperidin-2-one]	0.682 nM
Nc1ncc(-c2nc(N3CCOCC3)nc(N[C@]3(CO)CCCN(C(=O)OCC(F)F)C3)c2F)cn1 [Example 148, 2,2-difluoroethyl (3R)-3-{[2′-amino-5-fluoro-2-(morpholin-4-yl)-4,5′-bipyrimidin-6-yl]amino}-3-(hydroxymethyl)piperidine-1-carboxylate]	2.96 nM
CC(C)OC(=O)N1CC[C@](CO)(Nc2nc(N3CCOCC3)nc(-c3cnc(N)nc3)c2F)C1 [Example 70, propan-2-yl (3S)-3-{[2′-amino-5-fluoro-2-(morpholin-4-yl)-4,5′-bipyrimidin-6-yl]amino}-3-(hydroxymethyl)pyrrolidine-1-carboxylate]	0.031 nM
CC(C)(C)OC(=O)N1CC[C@](C)(Nc2nc(N3CCOCC3)nc(-c3cnc(N)nc3)c2F)C1 [Example 108, tert-butyl (3S)-3-{[2′-amino-5-fluoro-2-(morpholin-4-yl)-4,5′-bipyrimidin-6-yl]amino}-3-methylpyrrolidine-1-carboxylate]	0.036 nM
CC(C)[C@@H](N)C(=O)N1CC[C@](CO)(Nc2cc(-c3cnc(N)nc3)nc(N3CCOCC3)n2)C1 [Example 50, (2R)-2-amino-1-[(3S)-3-{[2′-amino-2-(morpholin-4-yl)-4,5′-bipyrimidin-6-yl]amino}-3-(hydroxymethyl)pyrrolidin-1-yl]-3-methylbutan-1-one]	0.137 nM

Same assay, conditions: PI3KA_Act Ki (nM), 0.5 nM p110α/iSH2 p85, 1 mM ATP, 30 μM PIP2, 15-min preincubation; Morrison equation fit

Compound	Ki
Nc1ncc(-c2nc(N3CCOCC3)nc(N[C@@]3(CO)CCN(C(=O)OCC(F)(F)F)C3)c2F)cn1 [Example 140, 2,2,2-trifluoroethyl (3S)-3-{[2′-amino-5-fluoro-2-(morpholin-4-yl)-4,5′-bipyrimidin-6-yl]amino}-3-(hydroxymethyl)pyrrolidine-1-carboxylate]	< 0.018 nM
